Measured values published in patent US10604476B2, “Fluorinated amide derivatives and their uses as therapeutic agents” (Trillium Therapeutics Inc., priority 2015, dated 2020).

Columns and labels:
[1] = system: mEC-HC slice from KA-treated rats; assay: Spontaneously bursting hippocampal slice in vitro model; format: cell-based, rat; settings: 100 μM, FIG. 2
Text: An in vitro screen uses the medial entorhinal cortex-hippocampal (mEC-HC) slice obtained from kainic acid (KA)-treated animals to identify compounds that may be effective in pharmacoresistant epilepsy. Systemic KA treatment in rats is an accepted model of temporal lobe epilepsy (TLE), where an initial insult results in status epilepticus and is followed by a sustained latent period that subsequently gives way to the development of spontaneous seizures. […] Moreover, the mEC-HC slices obtained from KA-treated rats are hyperexcitable in normal artificial cerebrospinal fluid (ACSF) solution as early as one week following KA-induced SE. Thus, this test screens investigational compounds for any potential efficacy against pharmacoresistant TLE. […]
Kainic acid administration/low dose: Animals were treated with Kainic Acid (Tocris, 0222) following a modified protocol described previously (Hellier et al 1998). Seizure activity is scored throughout KA administration using the Racine scale (Racine, 1972). […] Once stage 4-5 seizures are observed, injections cease and the number and stage of seizures observed are recorded on seizure score sheets. The animals are observed and seizures recorded for a minimum of 3.5 h. […]

mechanical allodynia = assay: Sciatic ligation model in rats (neuropathic pain); format: in vivo, rat; settings: 23 mg/kg i.p.
Text: Animals will be anesthetized with sodium pentobarbital and the depth of anesthesia monitored by their response to a tail pinch and observation of the depth of respiration. Sterile technique will be used throughout the surgery. The upper thigh will be shaved and wiped off with ethanol and betadine. A small incision will then be made in the skin. The underlying muscle of the upper thigh will be separated and the sciatic nerve exposed. The nerve is separated from the surrounding connective tissue and slightly elevated by a pair of fine, curved forceps. Approximately ⅓ to ½ of the nerve is tied off by passing a needle (7.0) and nylon suture through the nerve. The muscle and skin incision are closed off separately with 5.0 suture and the animals kept warm until they have recovered from the anesthesia. […] The rats will be closely monitored daily for the development of infection or untoward effects of the surgery in which case the animals will be immediately euthanized. […] After 30-60 minutes in which to acclimate, a baseline mechanical sensitivity is determined. […] This is repeated until a 50% threshold for withdrawal can be determined. […] Testing will be conducted at the time-to-peak effect of the AED as determined in the acute seizure model (Z. Seltzer et al. Pain 43 1990, 205-218).

| SMILES | network hyperexcitability (spontaneous burst activity and duration) [1] | mechanical allodynia compared to vehicle controls (mechanical allodynia) |
| --- | --- | --- |
| C[C@@H](Oc1cc(Cl)cc(C(F)(F)F)c1)C(N)=O [I(D), (2R)-2-[3-chloro-5-(trifluoromethyl)-phenoxy]propanamide] | effectively suppressed |  |
| NC(=O)COc1cc(C(F)(F)F)cc(C(F)(F)F)c1 [I(F), 2-[3,5 bis(trifluoromethyl)-phenoxy]acetamide;] |  | significant decrease |
